In patent publication US20120258038A1, “USES OF APOPTOTIC CELL-TARGETING PEPTIDES, LABEL SUBSTANCES AND LIPOSOMES CONTAINING A THERAPEUTIC AGENT FOR PREVENTING, TREATING OR THERAPEUTICALLY DIAGNOSING APOPTOSIS-RELATED DISEASES” (Kyungpook National University Industry-Academic Cooperation …, priority 2009, published 2012):

Experiments:
[1] = system: A549 cells; assay: FACS analysis of binding to apoptotic cells; type: cell-based, human; settings: for percentage of cells bound/stained, early stage of apoptosis (fraction Q4) / percentage of cells bound/stained, later stage of apoptosis (fraction Q2): A549 cells treated with 50 μM etoposide for 15 hours, PI co-staining
Experimental: As another way of confirming the binding of the inventive peptide to apoptotic cells, apoptotic cells were treated with the inventive peptide labeled with fluorescein, and the binding was confirmed through FACS analysis. First, apoptosis was induced by treating A549 cells with 50 μM etoposide for 6 to 15 hours. The apoptotic cells or normal cells were reacted with the inventive ApoPep-1 peptide(5 μM) or a control peptide at the same concentration, labeled with fluorescein, at 4° C. for 1 hour. Meanwhile, the cells were reacted with fluorescein-labeled annexin V at room temperature for 15 minutes. After simultaneously staining the cells with propodium iodide (PI), followed by washing with PBS, FACS analysis was performed using a FACS instrument (Becton Dickinson).

[2] = system: apoptotic A549 cells; assay: Competitive inhibition of binding to apoptotic cells by annexin V pre-treatment; type: cell-based, human
Experimental: In order to further investigate the binding properties of the inventive peptide (ApoPep-1) to apoptotic cells, competitive inhibition by annexin V was measured. For this, first, apoptotic A549 cells were pretreated with annexin V, not labeled with fluorescence, at concentrations of 0, 200 and 1000 μM. Then, after the cells were reacted with fluorescence-labeled annexin V under the same condition as described in Example <2-1>, the binding of the cells was observed under a fluorescence microscope.
Meanwhile, apoptotic A549 cells were pre-treated with annexin V, not labeled with fluorescence, at a concentration of 1000 μM. Then, after the cells were reacted with fluorescence-labeled peptide under the same condition as described in Example <2-1>, the binding of the cells was observed under a fluorescence microscope.

[3] = system: etoposide-treated apoptotic cells (A549, H460, HeLa, L132, RAW); assay: Microscopic observation of binding of the peptide to apoptotic cells; type: cell-based; settings: for labeling of etoposide-treated apoptotic cells: etoposide 50 μM; for labeling of etoposide-treated apoptotic cells / labeling of normal cells not treated with etoposide: fluorescence microscopy, fluorescein-labeled peptide 10 μM, alexa 594-labeled annexin V; for labeling of normal cells not treated with etoposide: 4° C., 1 hour
Experimental: Cells were cultured in a chamber slide (Nalgen Nunc), and treated with etoposide (Sigma) at a concentration of 50 μM for a given period of time to induce apoptosis (A549 and HeLa cells: for 15 hours, H460 cells: 24 hours, L132 cells: 3 hours, and RAW cells: 6 hours). The cells were cultured in RMPI-1640 medium (A549 and H460 cells) or DMEM medium (HeLa, L132 and RAW cells) containing antibiotics (penicillin and streptomycin) and 10% FBS. Meanwhile, all the cells were subcultured every 3 or 4 days. The apoptosis-induced apoptotic cells were washed with PBS, and blocked with 1% BSA at 37° C. for 30 minutes. Then, the cells were reacted with 10 μM of the peptide labeled with fluorescein, at 4° C. for 1 hour. After being washed, the cells were reacted with an annexin V reaction buffer solution containing alexa 594 (fluorescent reagent)-labeled annexin V (Molecular Probes) at room temperature for 15 minutes. The cells were washed with PBS, and then fixed with 4% paraformaldehyde for 5 minutes. Then, after counterstaining using the nuclear stain 4′,6-diamidino-2-phenylindole (DAPI), followed by treatment with a mounting solution (Molecular Probes), images of the cells were obtained under a fluorescence microscope (Zeiss).

Molecule | binding to normal cells ([1]; A549 cells not treated with etoposide, 5 μM, fluorescein-labeled) | percentage of cells bound/stained, early stage of apoptosis (fraction Q4) [1] | percentage of cells bound/stained, later stage of apoptosis (fraction Q2) [1] | binding of the peptide after pre-treatment with annexin V ([2]; annexin V not labeled with fluorescence, 1000 μM) | labeling of etoposide-treated apoptotic cells [3] | location of binding compared with annexin V (merged images) ([3]; etoposide-treated apoptotic cells) | labeling of normal cells not treated with etoposide [3] | fluorescence of fluorescence-labeled annexin V after pre-treatment with annexin V not labeled with fluorescence ([2]; pre-treatment 0, 200 and 1000 μM, high concentration)
CQRPPR (Apoptotic cell-targeting peptide, ApoPep-1) | almost nonexistent | 90.3% | 7.2% | not inhibited | labeling was observed | at the same locations | no labeling was observed | –
annexin V: protein having a molecular weight of 36 kDa, binds to phosphatidylserine with strong affinity (protein, UniProt P08758 2-320, looked up) Annexin A5: AQVLRGTVTDFPGFDERADAETLRKAMKGLGTDEESILTLLTSRSNAQRQEISAAFKTLFGRDLLDDLKSELTGKFEKLIVALMKPSRLYDAYELKHALKGAGTNEKVLTEIIASRTPEELRAIKQVYEEEYGSSLEDDVVGDTSGYYQRMLVVLLQANRDPDAGIDEAQVEQDAQALFQAGELKWGTDEEKFITIFGTRSVSHLRKVFDKYMTISGFQIEETIDRETSGNLEQLLLAVVKSIRSIPAYLAETLYYAMKGAGTDDHTLIRVMVSRSEIDLFNIRKEFRKNFATSLYSMIKGDTSGDYKKALLLLCGEDD | – | 64.3% | 9.4% | – | labeling was observed | – | no labeling was observed | significantly decreased
